Structures can show the parent of a compound that is named as a salt. Where two headings read alike, the source gives them in different places.
What was measured:
[1] = target: T1, HCV polymerase H544 1a 3X (UniProt P27958); experiment: Assay of enzyme (HCV polymerase) inhibitory activity, H544 1a 3X; assay type: biochemical
T1 construct: fused on or other part: 6 His tag at the C-terminus, for the BK (1b) enzyme

[2] = target: T2, HCV polymerase H544 1b 3X (Hepatitis C virus genotype 1b, UniProt P26663); experiment: Assay of enzyme (HCV polymerase) inhibitory activity, H544 1b 3X; assay type: biochemical, HCV BK strain
T2 construct: a region encoding NS5B (J Virol 1991 March, 65(3), 1105-13, 544 amino acids after deletion of 47 amino acids on the C-terminal); 6 His (C); made in house; host or cells: Escherichia coli
T2 sequence (P26663 2420-2963): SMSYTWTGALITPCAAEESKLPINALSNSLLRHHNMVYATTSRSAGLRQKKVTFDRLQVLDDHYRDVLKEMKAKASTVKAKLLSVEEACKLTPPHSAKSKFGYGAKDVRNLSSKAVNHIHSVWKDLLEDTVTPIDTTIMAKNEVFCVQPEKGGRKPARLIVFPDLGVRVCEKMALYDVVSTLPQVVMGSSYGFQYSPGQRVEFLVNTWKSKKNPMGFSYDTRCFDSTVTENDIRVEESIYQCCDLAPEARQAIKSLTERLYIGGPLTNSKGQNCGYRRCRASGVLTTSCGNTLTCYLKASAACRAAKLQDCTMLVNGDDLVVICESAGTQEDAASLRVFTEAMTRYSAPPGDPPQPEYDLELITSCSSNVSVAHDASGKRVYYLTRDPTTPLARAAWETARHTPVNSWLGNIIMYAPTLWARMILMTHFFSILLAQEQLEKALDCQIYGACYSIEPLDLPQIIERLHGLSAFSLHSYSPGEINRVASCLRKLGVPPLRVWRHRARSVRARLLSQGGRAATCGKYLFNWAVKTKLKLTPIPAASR
From the text: The evaluation of the HCV polymerase inhibitory activity of the compound of the present invention is explained in the following. This polymerase is an enzyme coded for by the non-structural protein region called NS5B on the genome RNA of HCV (EMBO J., 15:12-22, 1996).
Using, as a template, a cDNA clone corresponding to the full length genome RNA of HCV BK strain obtained from the blood of a patient with hepatitis C, a region encoding NS5B (J Virol 1991 March, 65(3), 1105-13, 544 amino acids after deletion of 47 amino acids on the C-terminal) was amplified by PCR. The objective gene was prepared by adding a 6 His tag {base pair encoding 6 continuous histidine (His)} to the 3′ end thereof and transformed to Escherichia coli. The Escherichia coli capable of producing the objective protein was cultured. The obtained cells were suspended in a buffer solution and crushed in a microfluidizer. The supernatant was obtained by centrifugation and applied to various column chromatographys {mono-S, Sephacryl S-200 (Pharmacia)}, inclusive of metal chelate chromatography, to give a standard enzyme product.
Using a synthetic primer designed based on the sequence of HCV genomic 3′ untranslated region, a DNA fragment (148 bp) containing polyU and 3′X sequence was entirely synthesized and cloned into plasmid pBluescript SK II (+) (Stratagene). The cDNA encoding full length NS5B, which was prepared in i) above, was digested with restriction enzyme KpnI to give a cDNA fragment containing the nucleotide sequence of from the restriction enzyme cleavage site to the termination codon. This cDNA fragment was inserted into the upstream of 3′ untranslated region of the DNA in pBluescript SK II(+) and ligated. The about 450 bp inserted DNA sequence was used as a template in the preparation of substrate RNA. This plasmid was cleaved immediately after the 3′X sequence, linearized and purified by phenol-chloroform treatment and ethanol precipitation to give DNA.
RNA was synthesized (37° C., 3 hr) by run-off method using this purified DNA as a template, a promoter of pBluescript SK II(+), MEGAscript RNA synthesis kit (Ambion) and T7 RNA polymerase. DNase I was added and the mixture was incubated for 1 hr. The template DNA was removed by decomposition to give a crude RNA product. This crude product was treated with phenol-chloroform and purified by ethanol precipitation to give the objective substrate RNA.
This RNA was applied to formaldehyde denaturation agarose gel electrophoresis to confirm the quality thereof and preserved at −80° C.
A test substance (compound of the present invention) and a reaction mixture (30 μl) having the following composition were reacted at 25° C. for 90 min. 10% Trichloroacetic acid at 4° C. and 1% sodium pyrophosphate solution (150 μl) were added to this reaction mixture to stop the reaction. The reaction mixture was left standing in ice for 15 min to insolubilize RNA. This RNA was trapped on a glass filter (Whatman GF/C and the like) upon filtration by suction. This filter was washed with a solution containing 1% trichloroacetic acid and 0.1% sodium pyrophosphate, washed with 90% ethanol and dried. A liquid scintillation cocktail (Packard) was added and the radioactivity of RNA synthesized by the enzyme reaction was measured on a liquid scintillation counter.
The HCV polymerase inhibitory activity (IC50) of the compound of the present invention was calculated from the values of radioactivity of the enzyme reaction with and without the test substance.
The results are shown in Table 18, wherein each symbol means that IC50 falls within the following range.
Reaction mixture: HCV polymerase (0.5 μg/ml) obtained in i), substrate RNA (5 μg/ml) obtained in ii), ATP (50 μM), GTP (50 μM), CTP (50 μM), UTP (2 μM), [5,6-^3H] UTP (46 Ci/mmol (Amersham), 1 μCi) 20 mM Tris-HCl (pH 7.5), EDTA (1 mM), MgCl2 (5 mM), NaCl (50 mM), DTT (1 mM), BSA (0.01%)

[3] = 25° C., 90 min, [5,6-3H]UTP incorporation, read-out: H544 1a 3X IC50
[4] = read-out: H544 1a 3X IC50, 25° C., 90 min, [5,6-3H]UTP incorporation

Compound: O=C(O)c1cc2c(s1)c(C1CCCCC1)c(-c1ccc(OCc3ccccc3)cc1)n2CC(=O)N1CCN(C2CCCCC2)CC1 [Example 52, 5-(4-benzyloxyphenyl)-6-cyclohexyl-4-[2-(4-cyclohexylpiperazin-1-yl)-2-oxoethyl]-4H-thieno[3,2-b]pyrrole-2-carboxylic acid hydrochloride]
- IC50 [1, 3]: < 100 nM
- IC50 [2]: < 100 nM

Compound: O=C(O)c1cc2c(s1)c(C1CCCCC1)c(-c1ccc(OCc3ccccc3)cc1)n2CCN1CCN(C2CCCCC2)CC1 [Example 53, 5-(4-benzyloxyphenyl)-6-cyclohexyl-4-[2-(4-cyclohexylpiperazin-1-yl)ethyl]-4H-thieno[3,2-b]pyrrole-2-carboxylic acid dihydrochloride]
- IC50 [1, 4]: 100 to 1000 nM
- IC50 [2]: 100 to 1000 nM

Compound: O=C(O)c1cc2c(s1)c(C1CCCCC1)c(-c1ccc(OCc3ccccc3)cc1)n2CC(=O)N1CCC(N2CCCCC2)CC1 [Example 54, 5-(4-benzyloxyphenyl)-4-[2-(1,4′-bipiperidinyl-1′-yl)-2-oxoethyl]-6-cyclohexyl-4H-thieno[3,2-b]pyrrole-2-carboxylic acid hydrochloride]
- IC50 [1, 3]: < 100 nM
- IC50 [2]: < 100 nM

Compound: O=C(O)c1cc2c(s1)c(C1CCCCC1)c(-c1ccc(OCc3ccccc3)cc1)n2CCN1CCC(N2CCCCC2)CC1 [Example 55, 5-(4-benzyloxyphenyl)-4-[2-(1,4′-bipiperidinyl-1′-yl)ethyl]-6-cyclohexyl-4H-thieno[3,2-b]pyrrole-2-carboxylic acid dihydrochloride]
- IC50 [1, 3]: 100 to 1000 nM
- IC50 [2]: 100 to 1000 nM

Compound: CN(C)CCn1c(-c2ccc(OCc3cc(S(C)(=O)=O)ccc3N3CCOCC3)cc2)c(C2CCCCC2)c2sc(C(=O)O)cc21 [Example 56, 6-cyclohexyl-4-(2-dimethylaminoethyl)-5-[4-(5-methanesulfonyl-2-morpholinobenzyloxy)phenyl]-4H-thieno[3,2-b]pyrrole-2-carboxylic acid dihydrochloride]
- IC50 [1, 4]: < 100 nM
- IC50 [2]: < 100 nM

Compound: CN(C(=O)CN1CCOCC1)c1ccc(N2CCOCC2)c(COc2ccc(-c3c(C4CCCCC4)c4sc(C(=O)O)cc4n3C)cc2)c1 [Example 57, 6-cyclohexyl-4-methyl-5-(4-{5-[N-methyl-N-(2-morpholinoacetyl)amino]-2-morpholinobenzyloxy}phenyl)-4H-thieno[3,2-b]pyrrole-2-carboxylic acid dihydrochloride]
- IC50 [1, 4]: < 100 nM
- IC50 [2]: < 100 nM

Compound: CN(CCN1CCOCC1)CCn1c(-c2ccc(OCc3ccccc3)cc2)c(C2CCCCC2)c2sc(C(=O)O)cc21 [Example 58, 5-(4-benzyloxyphenyl)-6-cyclohexyl-4-{2-[N-methyl-N-(2-morpholinoethyl)amino]ethyl}-4H-thieno[3,2-b]pyrrole-2-carboxylic acid dihydrochloride]
- IC50 [1, 4]: 100 to 1000 nM
- IC50 [2]: 100 to 1000 nM

Compound: CN(CCN1CCCCC1)CCn1c(-c2ccc(OCc3ccccc3)cc2)c(C2CCCCC2)c2sc(C(=O)O)cc21 [Example 59, 5-(4-benzyloxyphenyl)-6-cyclohexyl-4-{2-[N-methyl-N-(2-piperidinoethyl)amino]ethyl}-4H-thieno[3,2-b]pyrrole-2-carboxylic acid dihydrochloride]
- IC50 [1, 4]: 100 to 1000 nM
- IC50 [2]: < 100 nM

Reference: patent publication US20090036444A1, “5-5-Membered fused heterocyclic compound and use thereof as HCV polymerase inhibitor” (priority 2003, published 2009)
